Measurements taken from patent US11753370B2, “Methods of making deuterium-enriched N-acetylcysteine amide (d-NACA) and (2R, 2R′)-3,3′-disulfanediyl bis(2-acetamidopropanamide) (diNACA) and using d-NACA and diNACA to treat diseases involving oxidative stress” (Nacuity Pharmaceuticals, Inc., priority 2017, dated 2023).

Experiment: Plasma half-life
Type: in vivo
Text: Metabolism. An advantage of diNACA over N-acetylsysteine amide (NACA) is the reduction in metabolism rate compared to NACA. DiNACA has a longer plasma half-life than NACA. The major metabolites of diNACA are NACA and N-acetylcysteine (NAC) afforded by cleavage of the sulfur bond of diNACA to yield NACA and NAC. Dosing the patient with diNACA affords high greater bioavailability in tissues like the retina and aqueous humore compared to dosing with NACA, presumably due the higher lipophilicity of diNACA compared to NACA and the resulting in vivo cleavage to two NACA-like molecules, thereby effectively increasing the half-life of NACA in the body.
Metabolism. Deuterium-inhibition of NACA metabolism. An advantage of NACA-d3 is the reduction in metabolism rate compared to the non-deuterated NACA. Non-deuterated NACA has a plasma half-life of approximately 2 hours in fasting subjects and approximately 6 hours in fed subjects. The major metabolite of NACA is N-acetylcysteine (NAC) afforded by deamidation of the primary amide functional group of NACA by tissue (e.g., plasma or other tissue) amidase. Another metabolite of NACA is cysteine afforded by (a) deamidation of the primary amide functional group of NACA by tissue (e.g., plasma or other tissue) amidase and (b) de-acetylation of the secondary amide functional group of NACA by tissue (e.g., plasma or other tissue) amidase. Replacement of the acetyl methyl group hydrogen atoms with deuterium atoms slows down the action of tissue amidases on both (primary and secondary) amide functional groups of NACA-d3, thereby prolonging its residence time in the body, i.e., increasing the half-life in the body.

plasma half-life compared to NACA (comparison with NACA) | plasma half-life (fasting subjects) | plasma half-life (fed subjects) | Compound
longer |  |  | CC(=O)N[C@@H](CSSC[C@H](NC(C)=O)C(N)=O)C(N)=O [DiNACA, (2R,2R′)-3,3′-disulfanediyl bis(2-acetamidopropanamide)]
 | approximately 2 hours | approximately 6 hours | N-acetylcysteine amide [NACA]
